Results published in ChEMBL document CHEMBL1201862, “PubChem BioAssay data set” (2004).
Calls of active or inactive are those of the source.

Tests used:
[1] = tested on: HEK293; test: viability loss in HEK293T cells – cell-based, ATP luminescence, cherry-pick samples, cytotoxicity control, dose response (AID 687005); assay type: functional; details: Homo sapiens;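 further: cells exposed to compound for 48 hours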
[2] = HEK293 Cytotoxicity Assay Measured in Cell-Based System Using Plate Reader - 7071-01_Inhibitor_Dose_CherryPick_Activity_Set2.; assay type: functional
[3] = molecular target: T1, RNA-binding protein pos-1 (Caenorhabditis elegans, UniProt G5EF15); test: disruptors of C. elegans POS-1 RNA interaction – biochemical, fluorescence polarization, dose response (AID 1964);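 further: purified POS-1 fused to maltose binding protein made in E. coli; potency of compounds blocking POS-1 binding to fluorescent RNA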
T1 sequence (G5EF15 whole entry): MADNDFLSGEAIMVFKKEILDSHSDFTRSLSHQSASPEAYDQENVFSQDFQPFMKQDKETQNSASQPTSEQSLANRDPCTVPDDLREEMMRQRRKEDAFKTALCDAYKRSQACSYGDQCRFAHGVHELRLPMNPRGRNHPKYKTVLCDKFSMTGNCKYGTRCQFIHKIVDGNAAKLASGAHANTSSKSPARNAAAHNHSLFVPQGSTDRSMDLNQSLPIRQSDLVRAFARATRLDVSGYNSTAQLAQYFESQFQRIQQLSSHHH

[4] = molecular target: T2, Zinc finger protein mex-5 (Caenorhabditis elegans, UniProt Q9XUB2); test: potency of MEX-5 RNA-binding blockers – biochemical, C. elegans, fluorescence polarization, dose response (AID 1960)
T2 sequence (Q9XUB2 whole entry): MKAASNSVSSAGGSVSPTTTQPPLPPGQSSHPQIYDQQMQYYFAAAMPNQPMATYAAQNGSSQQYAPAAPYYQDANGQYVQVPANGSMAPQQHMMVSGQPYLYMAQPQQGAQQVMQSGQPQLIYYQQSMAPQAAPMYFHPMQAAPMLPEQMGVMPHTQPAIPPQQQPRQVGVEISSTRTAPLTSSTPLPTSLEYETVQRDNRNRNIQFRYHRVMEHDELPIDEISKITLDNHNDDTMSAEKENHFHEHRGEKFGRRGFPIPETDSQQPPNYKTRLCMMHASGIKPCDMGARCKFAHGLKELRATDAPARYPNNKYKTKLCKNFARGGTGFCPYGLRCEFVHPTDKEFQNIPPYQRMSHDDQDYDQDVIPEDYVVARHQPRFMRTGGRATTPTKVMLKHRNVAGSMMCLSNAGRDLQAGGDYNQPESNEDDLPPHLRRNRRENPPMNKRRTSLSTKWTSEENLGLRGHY

[5] = cells
[6] = potency of ADAM10 substrate cleavage blockers – biochemical, QFRET, dose response (AID 743254);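 further: ADAM10 enzyme with the DM2 quenched FRET peptide as substrate; EDANS fluorescence gain as the protease cuts the substrate; inhibitor potency against ADAM10 proteolytic activity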
[7] = molecular target: Disintegrin and metalloproteinase domain-containing protein 17 (Homo sapiens, UniProt P78536); test: inhibition of ADAM17 substrate cleavage – biochemical, quenched FRET substrate, counter-screen for ADAM10 exosite inhibitor project, dose response (AID 743253)
Chain of Disintegrin and metalloproteinase domain-containing protein 17 (P78536 whole entry, the tested form may be a part): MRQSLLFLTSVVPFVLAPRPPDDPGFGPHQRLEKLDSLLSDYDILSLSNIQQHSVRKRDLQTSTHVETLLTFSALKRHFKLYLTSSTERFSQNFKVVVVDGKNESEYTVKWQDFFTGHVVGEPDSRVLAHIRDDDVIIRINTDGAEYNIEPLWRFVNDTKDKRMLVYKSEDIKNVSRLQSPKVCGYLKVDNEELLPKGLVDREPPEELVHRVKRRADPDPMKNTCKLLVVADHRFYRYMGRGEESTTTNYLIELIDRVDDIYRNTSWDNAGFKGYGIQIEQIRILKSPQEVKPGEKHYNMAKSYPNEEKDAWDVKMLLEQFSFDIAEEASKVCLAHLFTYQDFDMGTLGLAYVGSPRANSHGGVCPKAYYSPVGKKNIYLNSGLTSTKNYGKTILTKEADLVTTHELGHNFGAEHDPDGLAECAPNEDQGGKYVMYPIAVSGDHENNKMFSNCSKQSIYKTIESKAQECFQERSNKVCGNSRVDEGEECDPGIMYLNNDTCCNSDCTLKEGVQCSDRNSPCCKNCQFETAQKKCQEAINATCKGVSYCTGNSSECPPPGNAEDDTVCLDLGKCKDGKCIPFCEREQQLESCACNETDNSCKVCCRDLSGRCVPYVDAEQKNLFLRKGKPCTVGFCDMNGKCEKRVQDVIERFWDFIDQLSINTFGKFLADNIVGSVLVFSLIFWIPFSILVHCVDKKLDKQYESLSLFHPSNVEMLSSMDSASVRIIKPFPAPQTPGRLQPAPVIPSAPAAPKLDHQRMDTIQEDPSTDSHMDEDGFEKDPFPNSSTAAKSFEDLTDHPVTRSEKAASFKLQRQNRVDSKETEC

[8] = molecular target: T3, Caspase-3 (Homo sapiens, UniProt P42574); assay type: functional;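 further: Dose-response selectivity test against caspase-3 for candidate inhibitors of sentrin-specific proteases (SENPs)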
T3 sequence (P42574 whole entry): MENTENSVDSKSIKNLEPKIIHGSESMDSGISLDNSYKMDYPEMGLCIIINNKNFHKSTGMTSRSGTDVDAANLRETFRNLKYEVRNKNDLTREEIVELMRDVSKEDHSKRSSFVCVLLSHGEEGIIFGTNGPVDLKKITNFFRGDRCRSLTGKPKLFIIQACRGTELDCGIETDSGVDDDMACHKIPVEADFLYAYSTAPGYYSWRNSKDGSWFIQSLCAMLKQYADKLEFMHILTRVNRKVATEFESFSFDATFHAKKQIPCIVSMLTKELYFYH

[9] = molecular target: T4, Sentrin-specific protease 7 (Homo sapiens, UniProt Q9BQF6); assay type: functional;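 further: Luminescence-based dose-response confirmation of ultra-high-throughput screening hits, measuring inhibition of SENP7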
T4 sequence (Q9BQF6 whole entry): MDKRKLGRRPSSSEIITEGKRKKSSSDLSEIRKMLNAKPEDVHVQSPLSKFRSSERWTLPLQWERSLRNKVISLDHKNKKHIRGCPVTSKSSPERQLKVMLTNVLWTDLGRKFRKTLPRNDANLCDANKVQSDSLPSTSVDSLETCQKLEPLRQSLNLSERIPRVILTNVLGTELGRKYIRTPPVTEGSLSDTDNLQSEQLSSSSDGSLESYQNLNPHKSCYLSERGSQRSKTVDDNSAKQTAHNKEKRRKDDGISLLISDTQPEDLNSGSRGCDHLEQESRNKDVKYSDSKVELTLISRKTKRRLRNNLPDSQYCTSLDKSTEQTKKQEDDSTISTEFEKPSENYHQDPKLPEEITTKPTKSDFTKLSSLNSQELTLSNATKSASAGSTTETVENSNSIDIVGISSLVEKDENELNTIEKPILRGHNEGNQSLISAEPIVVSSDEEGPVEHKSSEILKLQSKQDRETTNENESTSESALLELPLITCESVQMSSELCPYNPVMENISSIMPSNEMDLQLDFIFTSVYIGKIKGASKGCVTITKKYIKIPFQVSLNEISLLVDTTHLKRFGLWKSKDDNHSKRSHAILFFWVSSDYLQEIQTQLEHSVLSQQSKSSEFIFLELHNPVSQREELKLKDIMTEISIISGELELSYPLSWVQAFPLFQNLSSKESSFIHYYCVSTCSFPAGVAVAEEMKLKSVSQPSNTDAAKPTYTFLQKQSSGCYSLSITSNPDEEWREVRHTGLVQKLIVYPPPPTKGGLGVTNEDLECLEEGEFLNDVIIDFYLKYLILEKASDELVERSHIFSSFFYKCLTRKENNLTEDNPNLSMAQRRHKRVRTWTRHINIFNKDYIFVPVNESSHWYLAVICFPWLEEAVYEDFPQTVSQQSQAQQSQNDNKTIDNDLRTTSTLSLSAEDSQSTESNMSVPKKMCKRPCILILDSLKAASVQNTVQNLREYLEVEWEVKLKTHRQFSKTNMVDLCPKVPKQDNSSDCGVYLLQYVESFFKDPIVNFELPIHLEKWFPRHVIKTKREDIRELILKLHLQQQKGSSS

[10] = molecular target: T5, Sentrin-specific protease 6 (Homo sapiens, UniProt Q9GZR1); assay type: functional;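 further: Luminescence-based dose-response confirmatory assay of SENP6 inhibition, following up an ultra-high-throughput screen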
T5 sequence (Q9GZR1 whole entry): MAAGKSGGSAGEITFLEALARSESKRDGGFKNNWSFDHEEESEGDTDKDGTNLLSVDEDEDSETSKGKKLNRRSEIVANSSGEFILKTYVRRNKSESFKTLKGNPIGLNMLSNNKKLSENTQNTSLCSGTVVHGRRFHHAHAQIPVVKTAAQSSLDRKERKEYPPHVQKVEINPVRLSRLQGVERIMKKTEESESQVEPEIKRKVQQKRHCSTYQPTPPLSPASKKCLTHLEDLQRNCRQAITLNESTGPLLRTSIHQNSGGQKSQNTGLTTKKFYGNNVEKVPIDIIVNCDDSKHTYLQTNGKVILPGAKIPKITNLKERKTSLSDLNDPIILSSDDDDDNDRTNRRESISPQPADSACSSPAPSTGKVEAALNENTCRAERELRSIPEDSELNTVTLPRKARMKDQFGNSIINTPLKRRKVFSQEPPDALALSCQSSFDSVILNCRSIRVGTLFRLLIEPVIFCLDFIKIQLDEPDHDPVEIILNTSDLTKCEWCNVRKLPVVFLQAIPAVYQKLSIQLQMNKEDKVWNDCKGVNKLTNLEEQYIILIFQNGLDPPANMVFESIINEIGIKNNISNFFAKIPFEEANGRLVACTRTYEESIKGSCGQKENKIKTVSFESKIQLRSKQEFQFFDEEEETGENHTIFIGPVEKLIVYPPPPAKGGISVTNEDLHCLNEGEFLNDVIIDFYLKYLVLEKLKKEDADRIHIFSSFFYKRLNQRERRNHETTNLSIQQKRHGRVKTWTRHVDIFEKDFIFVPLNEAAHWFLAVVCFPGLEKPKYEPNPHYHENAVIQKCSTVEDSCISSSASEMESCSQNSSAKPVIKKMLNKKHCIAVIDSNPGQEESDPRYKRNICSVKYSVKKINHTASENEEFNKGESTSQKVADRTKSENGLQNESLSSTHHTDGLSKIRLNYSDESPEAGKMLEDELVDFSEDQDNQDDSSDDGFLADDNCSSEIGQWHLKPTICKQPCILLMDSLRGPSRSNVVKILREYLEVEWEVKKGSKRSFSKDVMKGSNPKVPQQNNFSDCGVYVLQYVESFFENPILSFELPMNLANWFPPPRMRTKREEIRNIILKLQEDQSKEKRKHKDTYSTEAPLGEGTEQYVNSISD

[11] = molecular target: T6, Sentrin-specific protease 8 (Homo sapiens, UniProt Q96LD8); assay type: functional;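 further: luminescence read-out of SENP8 inhibition, dose-response confirmation following an ultra-high-throughput screen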
T6 sequence (Q96LD8 whole entry): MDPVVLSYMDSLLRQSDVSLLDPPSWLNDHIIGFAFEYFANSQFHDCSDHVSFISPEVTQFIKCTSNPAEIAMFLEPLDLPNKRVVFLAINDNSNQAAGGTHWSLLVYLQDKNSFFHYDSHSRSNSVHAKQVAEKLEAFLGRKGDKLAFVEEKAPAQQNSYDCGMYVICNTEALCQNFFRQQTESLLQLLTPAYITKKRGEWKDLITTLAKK

[12] = molecular target: T7, Endoribonuclease toxin MazF (Escherichia coli K-12, UniProt P0AE70); test: activation of MazEF endoribonuclease cleavage – biochemical, fluorescence, single-stranded RNA substrate, uHTS hits, dose response (AID 588481); assay type: functional
T7 sequence (P0AE70 whole entry): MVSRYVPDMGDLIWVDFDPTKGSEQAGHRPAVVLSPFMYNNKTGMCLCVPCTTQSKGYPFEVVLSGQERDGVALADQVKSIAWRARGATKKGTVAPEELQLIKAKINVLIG

[13] = molecular target: T7, Endoribonuclease toxin MazF; test: substrate-only fluorescence increase artefacts – biochemical, single-stranded RNase substrate, counter-screen for MazEF activator project, dose response (AID 588502); assay type: functional
[14] = Luminescence-based cell-based high throughput dose response assay to identify activators of the DAF-12 from the parasite S. stercoralis (ssDAF-12).; assay type: functional
[15] = molecular target: T8, Oxysterols receptor LXR-beta (Homo sapiens, UniProt P55055); test: LXR agonists, Gal4 luciferase reporter, dose response, counter-screen for ssDAF-12 agonist project, cell-based, luminescence, HEK293, S. stercoralis campaign (AID 720737); assay type: functional; details: read-out: IC50 (the source's name)
T8 sequence (P55055 whole entry): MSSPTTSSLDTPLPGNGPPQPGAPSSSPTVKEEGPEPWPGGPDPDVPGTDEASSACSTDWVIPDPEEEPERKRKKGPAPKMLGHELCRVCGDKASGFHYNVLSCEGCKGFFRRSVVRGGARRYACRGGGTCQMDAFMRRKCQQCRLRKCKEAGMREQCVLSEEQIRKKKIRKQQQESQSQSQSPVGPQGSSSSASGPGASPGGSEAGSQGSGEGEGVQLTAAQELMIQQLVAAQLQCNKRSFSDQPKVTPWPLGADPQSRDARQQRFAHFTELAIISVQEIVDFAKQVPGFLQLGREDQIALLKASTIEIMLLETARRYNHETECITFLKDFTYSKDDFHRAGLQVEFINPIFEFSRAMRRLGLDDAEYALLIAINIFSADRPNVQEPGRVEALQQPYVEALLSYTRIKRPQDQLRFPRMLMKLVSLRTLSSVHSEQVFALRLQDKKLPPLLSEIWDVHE

[16] = molecular target: T8, Oxysterols receptor LXR-beta; assay type: functional, cell-based
[17] = molecular target: T8, Oxysterols receptor LXR-beta; assay type: functional, cell-based; remark: listed apart in the source
[18] = cells; remark: listed apart in the source
[19] = tested on: HeLa; test: viability loss in HeLa cells – cell-based, ATP luminescence, cherry-pick samples, cytotoxicity control, dose response (AID 687004); assay type: functional; details: Homo sapiens

With `Cc1ccc(C(=O)NC(=S)Nc2ccc(N3CCOCC3)cc2)cc1` the AC50 [1] was 20.1 µM (active) and the AC50 [2] was 20.1 µM (active).

In the case of `CCN(CC)c1ccc2cc(C#N)c(=O)oc2c1`, the EC50 [3] is reported as 76.3 µM (active), the EC50 [4] is reported as 63 µM (inconclusive) and the AC50 [5] is reported as 0.575 µM (active).

With `COc1ccccc1NS(=O)(=O)c1cc(NC(=O)c2cc(F)c(F)c(F)c2F)ccc1N1CCOCC1` the IC50 [6] was > 69.5 µM (inactive) and the IC50 [7] was > 69.5 µM (inactive).

For `OC(c1ccccc1)(c1nc(-c2ccc3c(c2)OCO3)cs1)C(F)(F)F` (stereo not drawn), the IC50 [6] was > 7.73 µM (active) and the IC50 [7] was > 69.5 µM (inactive).

In the case of `C(=N\NC1=Nc2cccc3cccc1c23)/c1ccccc1`, the IC50 [8] is reported as 30.1 µM (active), the IC50 [9] is reported as 5.42 µM (active) and the IC50 [10] is reported as > 100 µM (inactive). For the same molecule, the IC50 [11] was > 100 µM (inactive), the EC50 [12] was > 99 µM (inactive) and the EC50 [13] was > 99 µM (inactive). For the same molecule, the IC50 [14] was > 67.5 µM (inactive), the EC50 [15] was > 67.5 µM (inactive) and the EC50 [16] was > 67.5 µM (inactive). The EC50 [17] was > 67.5 µM (inactive) and the EC50 [18] was > 67.5 µM (inactive).

With `C[C@@H]1CN([C@H](C)CO)C(=O)c2cccc(NC(=O)Nc3ccccc3)c2O[C@@H]1CN(C)Cc1ccc(Cl)c(Cl)c1` the AC50 [19] was 45.7 µM (active), the AC50 [1] was 9.06 µM (active) and the AC50 [2] was 9.06 µM (active).
